From ChEMBL document CHEMBL4049411, “Rational Design, Synthesis, and Biological Evaluation of Heterocyclic Quinolones Targeting the Respiratory Chain of Mycobacterium tuberculosis” (J Med Chem, 2017)
pIC50: −log10 of the molar value. In brackets after ≈: the same amount, converted by molar mass.

Tests used:
[1] = (§1) Inhibition of replicating Mycobacterium tuberculosis H37Rv NDH assessed as cell growth inhibition after 7 days by MABA method; settings: 168 h
[2] = Solubility of compound at pH 1; type: physicochemical; settings: buffer
[3] = Apparent permeability across apical to basolateral side in human Caco2 cells at 5 uM measured up to 180 mins by LC-MS/MS analysis; type: ADME, cell-based; settings: Caco-2
[4] = Half life in rat plasma at 1 uM measured up to 3 hrs by LC-MS/MS analysis; type: ADME, cell-free
[5] = Half life in human plasma at 1 uM measured up to 3 hrs by LC-MS/MS analysis; type: ADME, cell-free
[6] = Protein binding in human plasma at 1 uM after 18 hrs by equilibrium dialysis; type: ADME, cell-free; settings: read-out: PPB (converted)
[7] = Solubility of compound at pH 7.4; type: physicochemical; settings: buffer
[8] = Solubility of compound in Middlebrook 7H9 broth media containing 10% albumin-dextrose-catalase solution; type: physicochemical
[9] = Aqueous solubility of compound; type: physicochemical; settings: buffer
[10] = Lipophilicity, logD of compound at pH 7.4; settings: buffer
[11] = Intrinsic clearance in human microsomes; type: ADME, Microsome; settings: read-out: CLH
[12] = Intrinsic clearance in rat hepatocytes assessed per million cells; type: ADME, cell-based, Hepatocyte; settings: read-out: CLH
[13] = Drug level in Sprague-Dawley rat urine treated with 2-(4-(3,3-Difluoropyrrolidin-1-yl)phenyl)-5,7-difluoro-3-methylquinolin-4-yl acetate at 50 mg/kg, po via gavage up to 9 hrs by HPLC analysis; type: ADME, organism-based; settings: in vivo
[14] = Drug level in Sprague-Dawley rat bile treated with 2-(4-(3,3-Difluoropyrrolidin-1-yl)phenyl)-5,7-difluoro-3-methylquinolin-4-yl acetate at 50 mg/kg, po via gavage up to 9 hrs by HPLC analysis; type: ADME, organism-based; settings: in vivo
[15] = Retention time of compound by HPLC anlaysis
[16] = Inhibition of Mycobacterium tuberculosis NDH by HTS-based assay
[17] = system: Mycobacterium tuberculosis; assay: Growth inhibition of replicating Mycobacterium tuberculosis H37Rv at 5 uM after 7 days by MABA method relative to control; type: functional; settings: 168 h, read-out: GI
[18] = system: Mycobacterium tuberculosis H37Rv; assay: as §1
HepG2 = assay: Cytotoxicity against human HepG2 cells after 24 hrs in presence of glucose by MTT assay; type: cell-based; settings: hepg2, 24 h
[19] = Metabolic stability in human liver microsomes assessed as half life for metabolic turnover at 0.1 to 10 uM preincubated for 60 mins in presence of NADPH measured up to 60 mins by mass spectroscopic analysis; type: ADME, microsome
[20] = Metabolic stability in mouse liver microsomes assessed as half life for metabolic turnover at 0.1 to 10 uM preincubated for 60 mins in presence of NADPH measured up to 60 mins by mass spectroscopic analysis; type: ADME, microsome
[21] = Metabolic stability in rat liver microsomes assessed as half life for metabolic turnover at 0.1 to 10 uM preincubated for 60 mins in presence of NADPH measured up to 60 mins by mass spectroscopic analysis; type: ADME, microsome
[22] = system: Mycobacterium tuberculosis; assay: Growth inhibition of dormant Mycobacterium tuberculosis H37Rv incubated for 7 days under anaerobic condition followed incubation under aerobic condition for 7 days by MABA; type: functional; settings: 168 h
[23] = Intrinsic clearance in mouse microsomes; type: ADME, Microsome; settings: read-out: CLH
[24] = Intrinsic clearance in rat microsomes; type: ADME, Microsome; settings: read-out: CLH
[25] = Apparent permeability across basolateral to apical side in human Caco2 cells at 5 uM measured up to 180 mins by LC-MS/MS analysis; type: ADME, cell-based; settings: Caco-2
CYP2C8 = target: T1, CYP2C8 (Homo sapiens, UniProt P10632); assay: Inhibition of human microsomal CYP2C8 expressed in insect cells at 10 uM using DBOMF as substrate measured every minute for 1 hr by fluorescence-based assay; type: ADME; settings: probe DBOMF
T1 sequence (P10632 whole entry): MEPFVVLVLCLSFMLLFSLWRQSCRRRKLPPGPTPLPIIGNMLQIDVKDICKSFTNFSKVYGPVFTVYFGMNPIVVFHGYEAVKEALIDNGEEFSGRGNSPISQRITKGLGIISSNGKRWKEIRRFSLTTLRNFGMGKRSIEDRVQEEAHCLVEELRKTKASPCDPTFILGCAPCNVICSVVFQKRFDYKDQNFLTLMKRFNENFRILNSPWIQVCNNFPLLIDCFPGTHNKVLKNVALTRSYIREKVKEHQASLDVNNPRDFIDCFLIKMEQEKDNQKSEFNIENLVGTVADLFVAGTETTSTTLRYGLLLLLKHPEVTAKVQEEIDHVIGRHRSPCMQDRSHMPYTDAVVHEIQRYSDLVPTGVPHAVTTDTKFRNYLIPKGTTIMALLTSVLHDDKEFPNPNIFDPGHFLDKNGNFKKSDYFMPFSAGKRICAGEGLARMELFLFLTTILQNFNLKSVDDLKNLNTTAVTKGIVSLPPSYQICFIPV

CYP2C9 = CYP2C9 (Homo sapiens, UniProt P11712); assay: Inhibition of human microsomal CYP2C9 expressed in insect cells at 10 uM using OOMR as substrate measured every minute for 1 hr by fluorescence-based assay; type: ADME; settings: probe OOMR
CYP2D6 = CYP2D6 (Homo sapiens, UniProt P10635); assay: Inhibition of human microsomal CYP2D6 expressed in insect cells at 10 uM using MOBFC as substrate measured every minute for 1 hr by fluorescence-based assay; type: ADME; settings: probe MOBFC
CYP3A4 = CYP3A4 (Homo sapiens, UniProt P08684); assay: Inhibition of human microsomal CYP3A4 expressed in insect cells at 10 uM using BOMCC as substrate measured every minute for 1 hr by fluorescence-based assay; type: ADME; settings: probe BOMCC
CYP3A5 = CYP3A5 (Homo sapiens, UniProt P20815); assay: Inhibition of human microsomal CYP3A5 expressed in insect cells at 10 uM using BOMCC as substrate measured every minute for 1 hr by fluorescence-based assay; type: ADME; settings: probe BOMCC
[26] = target: Voltage-gated inwardly rectifying potassium channel KCNH2 (Homo sapiens, UniProt Q12809); assay: Inhibition of human ERG
Salmonella typhimurium = assay: Mutagenicity in Salmonella typhimurium by Ames test; type: toxicity; settings: salmonella enterica subsp. enterica serovar typhimurium

Chain of CYP2C9 (P11712 whole entry): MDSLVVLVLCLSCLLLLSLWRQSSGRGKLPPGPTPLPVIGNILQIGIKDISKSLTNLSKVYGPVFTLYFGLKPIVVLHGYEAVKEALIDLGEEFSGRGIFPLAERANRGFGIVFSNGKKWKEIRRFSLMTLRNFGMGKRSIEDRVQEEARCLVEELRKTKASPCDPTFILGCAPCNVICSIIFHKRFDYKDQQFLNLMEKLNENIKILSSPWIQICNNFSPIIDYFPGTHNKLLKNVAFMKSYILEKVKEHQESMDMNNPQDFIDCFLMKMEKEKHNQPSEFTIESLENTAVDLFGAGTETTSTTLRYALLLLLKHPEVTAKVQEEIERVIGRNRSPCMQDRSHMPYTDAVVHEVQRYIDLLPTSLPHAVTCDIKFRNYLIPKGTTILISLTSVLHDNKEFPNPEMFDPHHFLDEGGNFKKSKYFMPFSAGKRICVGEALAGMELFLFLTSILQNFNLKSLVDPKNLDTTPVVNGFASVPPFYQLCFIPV
Chain of CYP3A4 (P08684 whole entry): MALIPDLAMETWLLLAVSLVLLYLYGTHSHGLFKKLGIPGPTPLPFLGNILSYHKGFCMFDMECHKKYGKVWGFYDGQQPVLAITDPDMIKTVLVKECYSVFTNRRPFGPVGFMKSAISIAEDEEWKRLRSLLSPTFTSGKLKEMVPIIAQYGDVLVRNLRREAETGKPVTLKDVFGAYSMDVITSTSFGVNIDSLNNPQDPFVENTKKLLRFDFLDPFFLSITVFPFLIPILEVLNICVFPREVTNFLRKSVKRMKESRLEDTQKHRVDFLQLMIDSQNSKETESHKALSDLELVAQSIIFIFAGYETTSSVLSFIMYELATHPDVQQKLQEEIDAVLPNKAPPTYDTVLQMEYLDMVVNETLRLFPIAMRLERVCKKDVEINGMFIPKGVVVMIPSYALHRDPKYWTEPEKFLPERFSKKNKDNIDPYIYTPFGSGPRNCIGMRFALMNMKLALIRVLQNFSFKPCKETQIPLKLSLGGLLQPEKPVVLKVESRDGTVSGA
Chain of CYP2D6 (P10635 whole entry): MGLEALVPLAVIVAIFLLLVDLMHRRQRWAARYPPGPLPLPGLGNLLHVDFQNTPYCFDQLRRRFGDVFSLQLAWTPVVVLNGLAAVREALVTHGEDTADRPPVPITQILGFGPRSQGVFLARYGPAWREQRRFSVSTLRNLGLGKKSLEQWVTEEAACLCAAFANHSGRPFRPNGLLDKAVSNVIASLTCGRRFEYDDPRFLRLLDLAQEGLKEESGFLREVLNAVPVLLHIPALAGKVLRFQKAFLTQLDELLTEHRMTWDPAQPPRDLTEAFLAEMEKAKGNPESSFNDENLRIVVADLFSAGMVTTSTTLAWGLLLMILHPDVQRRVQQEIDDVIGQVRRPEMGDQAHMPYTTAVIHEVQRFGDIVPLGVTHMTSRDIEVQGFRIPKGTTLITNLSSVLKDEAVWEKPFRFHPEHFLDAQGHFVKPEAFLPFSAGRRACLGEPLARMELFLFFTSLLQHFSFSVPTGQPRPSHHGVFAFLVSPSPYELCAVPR
Chain of Voltage-gated inwardly rectifying potassium channel KCNH2 (Q12809 whole entry): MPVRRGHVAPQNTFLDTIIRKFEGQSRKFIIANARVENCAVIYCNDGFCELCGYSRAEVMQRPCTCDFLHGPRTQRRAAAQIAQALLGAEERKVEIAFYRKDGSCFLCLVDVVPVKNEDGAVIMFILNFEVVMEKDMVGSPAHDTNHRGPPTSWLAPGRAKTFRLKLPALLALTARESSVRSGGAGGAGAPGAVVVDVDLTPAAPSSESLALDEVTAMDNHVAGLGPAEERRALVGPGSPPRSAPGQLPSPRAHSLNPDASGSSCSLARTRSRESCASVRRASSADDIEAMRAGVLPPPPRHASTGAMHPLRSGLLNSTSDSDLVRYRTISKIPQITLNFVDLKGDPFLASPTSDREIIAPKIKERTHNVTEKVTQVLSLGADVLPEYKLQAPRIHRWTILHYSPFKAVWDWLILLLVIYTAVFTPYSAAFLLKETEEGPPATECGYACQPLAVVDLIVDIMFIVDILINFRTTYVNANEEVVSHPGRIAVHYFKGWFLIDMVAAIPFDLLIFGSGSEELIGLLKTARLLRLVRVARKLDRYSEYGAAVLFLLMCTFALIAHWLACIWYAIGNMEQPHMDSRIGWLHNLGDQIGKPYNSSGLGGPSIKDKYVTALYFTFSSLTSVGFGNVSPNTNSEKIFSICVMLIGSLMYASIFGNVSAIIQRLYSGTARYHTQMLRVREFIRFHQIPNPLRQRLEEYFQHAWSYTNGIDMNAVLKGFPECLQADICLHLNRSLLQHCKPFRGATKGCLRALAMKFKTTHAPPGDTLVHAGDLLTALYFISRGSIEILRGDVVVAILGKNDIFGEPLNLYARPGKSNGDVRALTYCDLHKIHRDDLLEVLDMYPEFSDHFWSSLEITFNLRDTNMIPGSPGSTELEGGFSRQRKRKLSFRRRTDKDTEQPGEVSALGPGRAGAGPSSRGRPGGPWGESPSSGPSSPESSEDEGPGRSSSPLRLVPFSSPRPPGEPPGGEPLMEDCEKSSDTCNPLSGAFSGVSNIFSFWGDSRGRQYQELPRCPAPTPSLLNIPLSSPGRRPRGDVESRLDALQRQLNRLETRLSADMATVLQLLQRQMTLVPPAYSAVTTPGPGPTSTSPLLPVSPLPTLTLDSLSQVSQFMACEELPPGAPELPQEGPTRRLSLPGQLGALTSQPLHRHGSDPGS
Chain of CYP3A5 (P20815 whole entry): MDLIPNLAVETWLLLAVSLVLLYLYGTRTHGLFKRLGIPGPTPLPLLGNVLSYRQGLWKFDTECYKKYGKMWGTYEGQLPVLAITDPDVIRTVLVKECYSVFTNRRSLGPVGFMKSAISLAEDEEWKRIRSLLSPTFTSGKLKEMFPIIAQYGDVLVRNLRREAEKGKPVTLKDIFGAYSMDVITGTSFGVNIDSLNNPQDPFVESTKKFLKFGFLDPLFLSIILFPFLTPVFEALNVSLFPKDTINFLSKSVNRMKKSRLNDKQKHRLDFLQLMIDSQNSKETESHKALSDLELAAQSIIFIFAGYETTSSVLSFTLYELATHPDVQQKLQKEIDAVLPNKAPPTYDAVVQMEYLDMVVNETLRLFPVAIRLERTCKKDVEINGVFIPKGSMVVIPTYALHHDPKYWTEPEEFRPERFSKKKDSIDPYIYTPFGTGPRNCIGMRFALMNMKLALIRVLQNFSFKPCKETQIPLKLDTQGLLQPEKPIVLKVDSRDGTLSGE

Structure (SMILES)	pIC50 [1]	solubility [2]	Papp A→B at 3 h, 5 µM [3]	half-life at 1 µM [4]	half-life at 1 µM [5]	fraction unbound at 18 h, 1 µM [6]	solubility [7]	solubility [8]	Drug metabolism [13]	Drug metabolism [14]	Retention time [15]	IC90 [18]	Activity (HepG2)	half-life at up to 10 µM [19]	half-life at up to 10 µM [20]	half-life at up to 10 µM [21]	also measured
Cc1c(-c2ccc(N3CC[C@H](F)C3)cc2)[nH]c2cc(F)cc(F)c2c1=O	5.74	< 1 µg/mL	15.5 ×10⁻⁶ cm/s	> 3 h	> 3 h	0.0103 to 0.014	< 1 µg/mL	2.5 µg/mL (≈ 6.98 µM)									solubility [9]: 1 µM (≈ 0.358 µg/mL); logD [10]: 3.6; microsomal CLint [11]: 197 µL/min/mg; hepatocyte CLint [12]: 150 µL/min/1e6 cells
Cc1c(-c2ccc(N3CC(O)C(F)(F)C3)cc2)nc2cc(F)cc(F)c2c1O (stereo not given)									Metabolite_Detected	Metabolite_Detected	10.1 min						
Cc1c(-c2ccc(N3CCCCC3)cc2)[nH]c2ccccc2c1=O	5.82																pIC50 [16]: 5.82; inhibition of growth at 5 µM [17]: > 50%
Cc1c(-c2ccc(N3CCCC(F)C3)cc2)[nH]c2cc(F)cc(F)c2c1=O (stereo not given)	6.51 to 6.52	> 150 µg/mL	22.9 ×10⁻⁶ cm/s	> 3 h	> 3 h	0.0155	< 1 µg/mL	10 µg/mL (≈ 26.9 µM)				560 nM	188.1 µM	0.13 h	0.113 h	0.168 h	
COc1ccc2c(=O)c(C)c(-c3ccc(N4CCCCC4)cc3)[nH]c2c1	6.14																pIC50 [16]: 6.14; inhibition of growth at 5 µM [17]: > 50%
Cc1c(-c2ccc(N3CCC(F)(F)C3)cc2)[nH]c2cc(F)cc(F)c2c1=O	6.28	< 1 µg/mL	10 ×10⁻⁶ cm/s	> 3 h	> 3 h	0.003 to 0.027	< 1 µg/mL	55 µg/mL (≈ 146 µM)	Metabolite_Detected	Metabolite_Detected	11.4 min	1100 nM	> 100 µM	1.21 h	1.92 h	1.03 h	solubility [9]: 0.2 µM (≈ 0.0753 µg/mL); microsomal CLint [11]: 9.52 to 89.7 µL/min/mg; hepatocyte CLint [12]: 52.2 µL/min/1e6 cells; IC90 [22]: 76 nM; microsomal CLint [23]: 6.03 µL/min/mg; microsomal CLint [24]: 11.2 µL/min/mg; Papp B→A at 3 h, 5 µM [25]: 9.8 ×10⁻⁶ cm/s; inhibition at 1 h, 10 µM (CYP2C8): 38%; inhibition at 1 h, 10 µM (CYP2C9): 0%; inhibition at 1 h, 10 µM (CYP2D6): 0%; inhibition at 1 h, 10 µM (CYP3A4): 0%; inhibition at 1 h, 10 µM (CYP3A5): 0%; pIC50 [26]: < 4.60; Activity (Salmonella typhimurium): Non-Toxic
OCc1c(-c2ccc(N3CC(O)C(F)(F)C3)cc2)nc2cc(F)cc(F)c2c1O (stereo not given)									Metabolite_Detected	Metabolite_Detected	8.6 min						
Cc1c(-c2ccc(-n3cccc3)cc2)[nH]c2cc(F)cc(F)c2c1=O	6.36	5.1 µg/mL (≈ 15.2 µM)	31 ×10⁻⁶ cm/s	> 3 h	> 3 h	0.039	3.6 µg/mL (≈ 10.7 µM)	61 µg/mL (≈ 181 µM)				690 nM	141 µM	0.17 h	0.345 h	0.502 h	
